The results in this text go back to the PolyMetriX glass transition set.

Each structure is given as a SMILES string.

In the case of `*CC1CCC(CNC(=O)c2cccc(C(=O)N*)c2)CC1` (repeat unit), the glass transition temperature came to 208.00 °C.
With `*CCCC1(CCCNC(=O)c2cccc(C(=O)N*)c2)c2ccccc2-c2ccccc21` (repeat unit), the glass transition temperature came out at 175.00 °C.
Compound `*CCCCCOC(=O)NCC(F)(F)C(F)(F)C(F)(F)C(F)(F)CNC(=O)O*` (repeat unit) displayed a glass transition temperature of 33.00 °C.
Regarding `*CCCCOc1ccc(OC(=O)c2ccc(C(=O)Oc3ccc(O*)cc3)c(C(=O)OCC=C)c2)cc1` (repeat unit), the glass transition temperature was determined as 56.00 °C.
The compound `*CCN(CCOC(=O)Nc1ccc(C)c(NC(=O)O*)c1)c1ccc(/C=C/c2ccc([N+](=O)[O-])cc2)cc1` (repeat unit) returned a glass transition temperature of 121.00 °C.
As for `*CCN(CCOC(=O)Nc1ccc(C)c(NC(=O)O*)c1)c1ccc(/C=C2/NC(=O)NC2=O)cc1` (repeat unit), the glass transition temperature came out at 178.00 °C.
In the case of `*CCN(CCOC(=O)Nc1ccc(C)c(NC(=O)O*)c1)c1ccc(/N=N/c2ccc(-c3nc4cc([N+](=O)[O-])ccc4[nH]3)cc2)cc1` (repeat unit) it was 188.00 °C; in that of `*CCN(CCOC(=O)Nc1ccc(C)c(NC(=O)O*)c1)c1ccc(/N=N/c2ccc(-c3nc4ccccc4o3)cc2)cc1` (repeat unit), 152.00 °C; in that of `*CCOC(=O)Nc1ccc(C)c(NC(=O)OCCOc2cc([N+](=O)[O-])ccc2/N=N/c2cn(*)c3ccc(-c4ccccc4)cc23)c1` (repeat unit), 165.00 °C.
In the case of `*NC(CCC(=O)OCc1ccc(C(F)(F)F)cc1)C(*)=O` (repeat unit) it was 26.57 °C.
Compound `*NC(CCC(=O)OCc1ccc(F)cc1)C(*)=O` (repeat unit) displayed a glass transition temperature of 46.90 °C.
Compound `*NC(CCC(=O)OCc1ccc([N+](=O)[O-])cc1)C(*)=O` (repeat unit) returned a glass transition temperature of 53.2 °C.
`*Nc1cc(NC(=O)c2cc(OCCN(C)c3ccc(C#N)cc3)cc(C(*)=O)c2)cc(C(=O)OCCN(C)c2ccc(S(=O)(=O)C(F)(F)C(F)(F)C(F)(F)C(F)(F)C(F)(F)C(F)(F)C(F)(F)C(F)(F)F)cc2)c1` (repeat unit) came in with a glass transition temperature of 165.00 °C.
For the compound `*Nc1ccc(NC(=O)c2ccc(NC(=O)CCCCCCCCC(=O)Nc3ccc(C(*)=O)cc3)cc2)cc1C(=O)OCCCCCCCCCCCCCCCC` (repeat unit), the glass transition temperature is 220.00 °C.
Under `*Nc1ccc(NC(=O)c2ccc(NC(=O)CCCCCCCCC(=O)Nc3ccc(C(*)=O)cc3)cc2)cc1C(=O)OCCCCCCCCCCCCCCCCCC` (repeat unit) stands 280.00 °C; under `*Nc1ccc(NC(=O)c2ccc(NC(=O)CCCCCCCCCCC(=O)Nc3ccc(C(*)=O)cc3)cc2)cc1C(=O)OCCCCCCCCCCCC` (repeat unit), 205.50 °C.
Under `*Nc1ccc(NC(=O)c2ccc(NC(=O)CCCCCCCCCCC(=O)Nc3ccc(C(*)=O)cc3)cc2)cc1C(=O)OCCCCCCCCCCCCCCCC` (repeat unit) stands 199.50 °C; under `*Nc1ccc(NC(=O)c2ccc(NC(=O)CCCCCCCCCCCCC(=O)Nc3ccc(C(*)=O)cc3)cc2)cc1C(=O)OCCCCCCCCCCCC` (repeat unit), 199.50 °C.
For the compound `*Nc1cccc(NC(=O)c2ccc(C(=O)Nc3ccc(C(=O)NC(*)=S)cc3)cc2)c1` (repeat unit), the glass transition temperature is 273.00 °C.
`*Oc1ccc(/N=C/C=N/c2ccc(OC(=O)NC3CC(C)(C)CC(C)(CNC(*)=O)C3)cc2)cc1` (repeat unit) displayed a glass transition temperature of 62.00 °C.
As for `*Oc1ccc(/N=C/C=N/c2ccc(OC(=O)Nc3cc(NC(*)=O)ccc3C)cc2)cc1` (repeat unit), the glass transition temperature was found to be 76.00 °C.
For `*Oc1ccc(C(=O)Nc2cc(NC(=O)c3ccc(*)cc3)cc(C(=O)OCCOC(=O)/C=C/c3ccc(N(C)C)cc3)c2)cc1` (repeat unit), the glass transition temperature is 182.00 °C.
